Test results from patent US10280150B2 (FORMA TM2, Inc., priority 2014, dated 2019).
Read-outs that look alike come from different tables or passages of the source.

Key:
[1] = target: IDH1-R132H recombinant protein (Homo sapiens (Human), UniProt O75874, R132H); assay: IDH1-R132H enzymatic assay (inhibition of NADPH consumption, diaphorase/resazurin readout); format: biochemical; conditions: read-out: Enzyme IDH1 R132H IC50 (Range)
Procedure, shortened: (§1)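 Compound was preincubated 15 min at 25 °C with 30 nM IDH1-R132H or 10 nM IDH1-R132C in Tris pH 7.5 buffer with MgCl2, BSA and Triton X-100. Reaction with 2 mM α-ketoglutarate and 20 μM NADPH (solution concentrations) ran 45 min at 25 °C. Remaining NADPH was detected via diaphorase/resazurin fluorescence (ex 535/em 590 nm), and IC50 came from four-parameter fits.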

[2] = system: HCT116 isogenic IDH1-R132H mutant cells; assay: Cellular 2-HG assay using HCT116 mutant IDH1 cells (R132H), RapidFire mass spectrometry; format: cell-based; conditions: Homo sapiens, read-out: HCT116 IDH1 R132H IC50 (Range)
Description: (§2) Example 106—Cellular 2-HG assay using HCT116 mutant IDH1 cells
(§3) HCT116 isogenic IDH1-R132H and IDH1-R132C mutant cells were cultured in growth media (McCoy's 5 A, 10% fetal bovine serum, 1× antibiotic-antimycotic solution and 0.3 mg/mL G418) in 5% CO2 in an incubator at 37° C. To prepare the assay, cells were trypsinized and resuspended in assay media (McCoy's 5 A with no L-glutamine, 10% fetal bovine serum, 1× antibiotic-antimycotic solution and 0.3 mg/mL G418). An aliquot of 10,000 cells/100 μL was transferred to each well of a clear 96-well tissue culture plate. The cells were incubated in 5% CO2 at 37° C. in an incubator overnight to allow for proper cell attachment. An aliquot of 50 μL of compound containing assay media were then added to each well and the assay plate was kept in 5% CO2 at 37° C. in an incubator for 24 hours. The media was then removed from each well and 150 μL of a methanol/water mixture (80/20 v/v) was added to each well. The plates were kept at −80° C. freezer overnight to allow for complete cell lysis. An aliquot of 125 μL of extracted supernatant was analyzed by RapidFire high-throughout-mass spectrometry (Agilent) to determine the cellular 2-HG level. The IC50 of a given compound was calculated by fitting the dose response curve of cellular 2-HG inhibition at a given concentration with the four parameter logistic equation.

[3] = target: IDH1-R132C recombinant protein (Homo sapiens (Human), UniProt O75874, R132C); assay: IDH1-R132C enzymatic assay (inhibition of NADPH consumption, diaphorase/resazurin readout); format: biochemical; conditions: read-out: Enzyme IDH1 R132C IC50 (Range)
Procedure, shortened: as §1

[4] = system: HCT116 isogenic IDH1-R132C mutant cells; assay: Cellular 2-HG assay using HCT116 mutant IDH1 cells (R132C), RapidFire mass spectrometry; format: cell-based; conditions: Homo sapiens, read-out: HCT116 IDH1 R132C IC50 (Range)
Description: as §2, §3

[5] = HCT-116, cellular 2-HG level, HCT116 IDH1-R132H cells, 24 hours
[6] = HCT-116, cellular 2-HG level, HCT116 IDH1-R132C cells, 24 hours

Sequence of IDH1-R132C recombinant protein (O75874 whole entry R132C): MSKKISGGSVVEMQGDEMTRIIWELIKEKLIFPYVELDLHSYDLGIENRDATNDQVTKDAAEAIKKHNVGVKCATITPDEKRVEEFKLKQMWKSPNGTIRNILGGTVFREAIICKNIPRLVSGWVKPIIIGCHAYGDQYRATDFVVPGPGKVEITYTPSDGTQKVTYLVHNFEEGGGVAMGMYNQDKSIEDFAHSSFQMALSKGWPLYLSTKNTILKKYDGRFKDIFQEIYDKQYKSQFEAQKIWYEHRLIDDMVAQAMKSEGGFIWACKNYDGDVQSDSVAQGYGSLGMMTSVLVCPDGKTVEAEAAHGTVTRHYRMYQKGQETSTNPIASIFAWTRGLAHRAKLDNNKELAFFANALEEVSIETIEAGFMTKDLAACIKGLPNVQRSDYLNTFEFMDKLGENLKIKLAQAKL
Sequence of IDH1-R132H recombinant protein (O75874 whole entry R132H): as the sequence (O75874 whole entry R132C) above, with C132H counted along it

Structure (SMILES) | IC50 [1] [µM] | IC50 [2, 5] [µM] | IC50 [3] [µM] | IC50 [4, 6] [µM] | IC50 ([2]; HCT-116, 24 h) [µM] | IC50 ([4]; HCT-116, 24 h) [µM]
C[C@H](Nc1nccc(-c2ccccc2)n1)c1cc2cc(Cl)ccc2[nH]c1=O [Compound I-101] | < 0.1 | 0.1 to 1 | 0.1 to 1 | 0.1 to 1 | – | –
C[C@H](Nc1nccc([S@@+](C)[O-])n1)c1cc2cc(Cl)ccc2[nH]c1=O [Compound I-112] | 0.1 to 1 | 0.1 to 1 | 1 to 10 | 1 to 10 | – | –
C[C@H](Nc1nccc([S@+](C)[O-])n1)c1cc2cc(Cl)ccc2[nH]c1=O [Compound I-113] | < 0.1 | < 0.1 | 0.1 to 1 | 0.1 to 1 | – | –
C[C@H](Nc1nccc(C(N)=O)n1)c1cc2cc(Cl)ccc2[nH]c1=O [Compound I-114, (S)-2-((1-(6-chloro-2-oxo-1,2-dihydroquinolin-3-yl)ethyl)amino)pyrimidine-4-carboxamide] | < 0.1 | 0.1 to 1 | 0.1 to 1 | 0.1 to 1 | – | –
CNC(=O)c1ccnc(N[C@@H](C)c2cc3cc(Cl)ccc3[nH]c2=O)n1 [Compound I-115] | 0.1 to 1 | 0.1 to 1 | 0.1 to 1 | 0.1 to 1 | – | –
CC(C)CNC(=O)c1ccnc(N[C@@H](C)c2cc3cc(Cl)ccc3[nH]c2=O)n1 [Compound I-116] | 0.1 to 1 | 0.1 to 1 | 0.1 to 1 | 1 to 10 | – | –
C[C@H](Nc1nccc(N2CCNC2=O)n1)c1cc2cc(Cl)ccc2[nH]c1=O [Compound I-123, (S)-6-Chloro-3-(1-((4-(2-oxoimidazolidin-1-yl)pyrimidin-2-yl)amino)ethyl)quinolin-2(1H)-one] | < 0.1 | 0.1 to 1 | 0.1 to 1 | 0.1 to 1 | – | –
COC(=O)c1ccnc(N[C@@H](C)c2cc3cc(Cl)ccc3[nH]c2=O)n1 [Compound I-129] | 0.1 to 1 | 1 to 10 | 1 to 10 | 1 to 10 | – | –
COc1nc(NC(C)c2cc3cc(Cl)c(F)cc3[nH]c2=O)ncc1C#N (stereo not shown) [Compound I-142] | < 0.1 | – | 0.1 to 1 | – | < 0.1 | 0.1 to 1
COc1cc2[nH]c(=O)c([C@H](C)Nc3ncc(C#N)c(OC)n3)cc2cc1Cl [Compound I-143, (S)-2-((1-(6-Chloro-7-methoxy-2-oxo-1,2-dihydroquinolin-3-yl)ethyl)amino)-4-methoxypyrimidine-5-carbonitrile] | < 0.1 | – | < 0.1 | – | < 0.1 | < 0.1
COc1cc2[nH]c(=O)c(C(C)Nc3ncc(C#N)c(OC)n3)cc2cc1Cl (stereo not shown) [Compound I-145] | < 0.1 | – | < 0.1 | – | < 0.1 | 0.1 to 1
COc1cc2[nH]c(=O)c(C(C)Nc3nccc(N4CCOC4=O)n3)cc2cc1Cl (stereo not shown) [Compound I-146] | < 0.1 | < 0.1 | 0.1 to 1 | 0.1 to 1 | – | –
CC(=O)Nc1ccnc(NC(C)c2cc3cc(Cl)c(OCc4ccccn4)cc3[nH]c2=O)n1 (stereo not shown) [Compound I-149] | < 0.1 | < 0.1 | < 0.1 | < 0.1 | – | –
COc1nc(N[C@@H](C)c2cc3cc(Cl)c(OCc4ccccn4)cc3[nH]c2=O)ncc1C#N [Compound I-151, (S)-2-((1-(6-Chloro-2-oxo-7-(pyridin-2-ylmethoxy)-1,2-dihydroquinolin-3-yl)ethyl)amino)-4-methoxypyrimidine-5-carbonitrile] | < 0.1 | < 0.1 | < 0.1 | < 0.1 | – | –
C[C@H](Nc1ncc(C#N)c(O)n1)c1cc2cc(Cl)c(OCc3ccccn3)cc2[nH]c1=O [Compound I-152, (S)-2-((1-(6-chloro-2-oxo-7-(pyridin-2-ylmethoxy)-1,2-dihydroquinolin-3-yl)ethyl)amino)-4-hydroxypyrimidine-5-carbonitrile] | < 0.1 | 0.1 to 1 | 1 to 10 | 1 to 10 | – | –
COC(=O)Nc1ccnc(N[C@@H](C)c2cc3cc(Cl)c(OCc4ccccn4)cc3[nH]c2=O)n1 [Compound I-154, (S)-methyl (2-((1-(6-Chloro-2-oxo-7-(pyridin-2-ylmethoxy)-1,2-dihydroquinolin-3-yl)ethyl)amino)pyrimidin-4-yl)carbamate] | < 0.1 | < 0.1 | < 0.1 | < 0.1 | – | –
COc1nc(N[C@@H](C)c2cc3cc(Cl)cnc3[nH]c2=O)ncc1C#N [Compound I-155, (S)-2-((1-(6-chloro-2-oxo-1,2-dihydro-1,8-naphthyridin-3-yl)ethyl)amino)-4-methoxy pyrimidine-5-carbonitrile] | < 0.1 | 0.1 to 1 | 1 to 10 | 1 to 10 | – | –
COc1nc(N[C@H](C)c2nc3cc(Cl)ccc3[nH]c2=O)ncc1C#N [Compound I-157] | 0.1 to 1 | – | 1 to 10 | – | < 0.1 | 0.1 to 1
COc1nc(N[C@@H](C)c2cc3cc(Cl)c(O[C@H](C)c4ccccn4)cc3[nH]c2=O)ncc1C#N [Compound I-158, 2-(((S)-1-(6-chloro-2-oxo-7-((R)-1-(pyridin-2-yl)ethoxy)-1,2-dihydroquinolin-3-yl)ethyl)amino)-4-methoxypyrimidine-5-carbonitrile] | < 0.1 | < 0.1 | < 0.1 | 0.1 to 1 | – | –
COc1nc(N[C@@H](C)c2cc3cc(Cl)c(OCC4CC4)cc3[nH]c2=O)ncc1C#N [Compound I-159, (S)-2-((1-(6-chloro-7-(Cyclopropylmethoxy)-2-oxo-1,2-dihydroquinolin-3-yl)ethyl)amino)-4-methoxypyrimidine-5-carbonitrile] | < 0.1 | < 0.1 | < 0.1 | < 0.1 | – | –
CC(=O)Nc1ccnc(N[C@@H](C)c2cc3cc(Cl)cc(F)c3[nH]c2=O)n1 [Compound I-160, (S)—N-(2-((1-(6-Chloro-8-fluoro-2-oxo-1,2-dihydroquinolin-3-yl)ethyl)amino)pyrimidin-4-yl)acetamide] | < 0.1 | < 0.1 | < 0.1 | < 0.1 | – | –
COc1nc(N[C@@H](C)c2cc3cc(Cl)cc(F)c3[nH]c2=O)ncc1C#N [Compound I-161, (S)-2-((1-(6-Chloro-8-fluoro-2-oxo-1,2-dihydroquinolin-3-yl)ethyl)amino)-4-methoxy pyrimidine-5-carbonitrile] | < 0.1 | < 0.1 | 0.1 to 1 | 0.1 to 1 | – | –
COc1nc(N[C@@H](C)c2cc3cc(Cl)c(Br)cc3[nH]c2=O)ncc1C#N [Compound I-162, (S)-2-((1-(7-bromo-6-chloro-2-oxo-1,2-dihydroquinolin-3-yl)ethyl)amino)-4-methoxypyrimidine-5-carbonitrile] | < 0.1 | < 0.1 | 0.1 to 1 | 0.1 to 1 | – | –
CC(=O)Nc1ccnc(N[C@@H](C)c2cc3cc(Cl)c(F)cc3[nH]c2=O)n1 [Compound I-179, (S)—N-(2-((1-(6-chloro-7-fluoro-2-oxo-1,2-dihydroquinolin-3-yl)ethyl)amino)pyrimidin-4-yl)acetamide] | < 0.1 | < 0.1 | < 0.1 | < 0.1 | – | –
C[C@H](Nc1nccc(NC(=O)C2CC2)n1)c1cc2cc(Cl)c(F)cc2[nH]c1=O [Compound I-180, (S)—N-(2-((1-(6-chloro-7-fluoro-2-oxo-1,2-dihydroquinolin-3-yl)ethyl)amino)pyrimidin-4-yl)cyclopropanecarboxamide] | 0.1 to 1 | 0.1 to 1 | 0.1 to 1 | 0.1 to 1 | – | –
COc1nc(N[C@@H](C)c2cc3cc(Cl)c(F)cc3[nH]c2=O)ncc1C#N [Compound I-181] | < 0.1 | – | 0.1 to 1 | – | 0.1 to 1 | 0.1 to 1
CC(=O)Nc1ccnc(N[C@@H](C)c2cc3cc(Cl)cnc3[nH]c2=O)n1 [Compound I-182] | < 0.1 | 0.1 to 1 | 0.1 to 1 | 0.1 to 1 | – | –
C[C@H](Nc1nccc(-n2nnnc2C2CC2)n1)c1cc2cc(Cl)cnc2[nH]c1=O [Compound I-184] | 0.1 to 1 | 0.1 to 1 | 0.1 to 1 | 0.1 to 1 | – | –
